In US12233161B1, “Lipids and lipid nanoparticle formulations” (LONGUIDE BIOPHARMA CORPORATION, priority 2024, dated 2025):
One block for each compound: values may come before it.

How the values were obtained:
mice [1] = assay: In vivo delivery of FLuc-mRNA lipid nanoparticles in mice, in vivo imaging (IVIS)
How it was run: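 Mice (n=3) received about 75 μL FLuc-mRNA LNP per mouse intramuscularly (rectus femoris), intravenously (tail vein), intraperitoneally or subcutaneously (back). After injection, D-luciferin (200 μL, 15 mg/mL) was given i.p. 10-15 min before IVIS imaging.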

[2] = Particle size and PDI of nucleic acid lipid nanoparticle preparations by dynamic light scattering; assay type: physicochemical
How it was run: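 Size read by DLS after diluting the LNP preparation (approx. 0.04 mg/mL mRNA) in ultrapure water with gentle pipette mixing. The same sample, recovered and diluted further with water, was then used for zeta potential measurement.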

[3] = Potential characterization of nucleic acid lipid nanoparticle preparations; assay type: physicochemical
How it was run: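 Nanoparticles (about 0.04 mg/mL mRNA) were diluted in ultrapure water for Malvern ZEN3700 measurement: 20 μL into 780 μL for potential alone, or 27.5 μL into 200 μL for DLS particle size followed by addition of 600 μL water for potential.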

mice [4] = assay: In vivo delivery of FLuc-circ-RNA lipid nanoparticles in mice; conditions: Fluc-circ-RNA LNP; for % of organ targeting: IV
Description: Lipid nanoparticles loaded with nucleic acid drugs were prepared according to step 2, replacing FLuc-mRNA with FLuc-circ-RNA (Hongene Biotech Corporation, Shanghai). After formulation, the nanoparticles were administered via intramuscular injection (into the quadriceps femoris muscle of mice), intravenous injection (into the tail vein of mice), intraperitoneal injection, or subcutaneous injection (subcutaneously on the back). Approximately 75 μL was injected per mouse, with a total of 3 mice per group. In vivo imaging (PerkinElmer, IVIS Lumina III) was performed after a certain period of time. Ten to fifteen minutes before imaging, 200 μL of a 15 mg/mL D-Luciferin working solution was injected intraperitoneally, followed by imaging analysis using the in vivo imaging system.

[5] = DMG-PEG2000:DSPC:Chol:Lipid 1.40:11.15:38.95:48.50, N/P 30, IV, liver
[6] = DMG-PEG2000:DSPC:Chol:Lipid 1.40:11.15:38.95:48.50, N/P 30, IV, lung
[7] = DMG-PEG2000:DSPC:Chol:Lipid 1.40:11.15:38.95:48.50, N/P 30, IV, spleen
[8] = DMG-PEG2000:DSPC:Chol:Lipid 4.00:8.00:58.00:30.00, N/P 36, IV, liver
[9] = DMG-PEG2000:DSPC:Chol:Lipid 4.00:8.00:58.00:30.00, N/P 36, IV, lung
[10] = DMG-PEG2000:DSPC:Chol:Lipid 4.00:8.00:58.00:30.00, N/P 36, IV, spleen
[11] = DMG-PEG2000:DSPC:Chol:Lipid 1.40:11.15:38.95:48.50, N/P 30, mRNA LNP
[12] = DMG-PEG2000:DSPC:Chol:Lipid 4.00:8.00:58.00:30.00, N/P 36, mRNA LNP
[13] = DMG-PEG2000:DSPC:Chol:compound 1.00:10.00:33.00:56.00, N/P 48
[14] = Fluc-circ-RNA LNP, preparation given IV
[15] = IV, body, DMG-PEG2000:DSPC:Chol:compound 1.00:10.00:33.00:56.00, N/P 42, Fluc-mRNA
[16] = IV, liver, DMG-PEG2000:DSPC:Chol:compound 1.00:10.00:33.00:56.00, N/P 42
[17] = IV, liver, DMG-PEG2000:DSPC:Chol:compound 1.00:10.00:33.00:56.00, N/P 42, Fluc-mRNA
[18] = IV, lung, DMG-PEG2000:DSPC:Chol:compound 1.00:10.00:33.00:56.00, N/P 42
[19] = IV, lung, DMG-PEG2000:DSPC:Chol:compound 1.00:10.00:33.00:56.00, N/P 42, Fluc-mRNA
[20] = IV, spleen, DMG-PEG2000:DSPC:Chol:compound 1.00:10.00:33.00:56.00, N/P 42
[21] = IV, spleen, DMG-PEG2000:DSPC:Chol:compound 1.00:10.00:33.00:56.00, N/P 42, Fluc-mRNA
[22] = DMG-PEG2000:DSPC:Chol:compound 1.00:10.00:33.00:56.00, N/P 42
[23] = Fluc-circ-RNA LNP, preparation given IM
[24] = N/P 30, formulation cells blank (line above: DMG-PEG2000:DSPC:Chol:compound 1.00:10.00:33.00:56.00)
[25] = DMG-PEG2000:DSPC:Chol:compound 1.40:11.15:38.95:48.50, N/P 30
[26] = DMG-PEG2000:DSPC:Chol:compound 2.50:11.50:56.00:30.00, N/P 42

- PDI [2, 11]: 0.13 ± 0.01
- Particle size [2, 11]: 118.73 ± 0.90 nm
- PDI [2, 12]: 0.11 ± 0.01
- Particle size [2, 12]: 104.43 ± 0.96 nm
- PDI [2, 13]: 0.14
- Particle size (nm) [2, 13]: 138.90 nm
- PDI [2, 14]: 0.19
- Particle size (nm) [2, 14]: 152.1 nm
- Zeta potential (mV) [3, 13]: 14.67 mV
- Zeta potential (mV) [3, 14]: 16.27 mV
SMILES: CCCCCCCCCCCCNC(=O)C(O)CN(CCCN(CCO)CCCN(CC(O)C(=O)NCCCCCCCCCCCC)CC(O)C(=O)NCCCCCCCCCCCC)CC(O)C(=O)NCCCCCCCCCCCC (stereo not shown) [Compound L0281]
- IVIS (mice [1]; DMG-PEG2000:DSPC:Chol:Lipid 1.40:11.15:38.95:48.50, N/P 30, IM, whole body scan): 1.38 × 10^6
- IVIS (mice [1]; DMG-PEG2000:DSPC:Chol:Lipid 1.40:11.15:38.95:48.50, N/P 30, IV, body (whole body scan)): 6.41 × 10^7
- % of organ targeting (mice [1]; [5]): 1.91%
- IVIS (mice [1]; [5]): 3.17 × 10^6
- % of organ targeting (mice [1]; [6]): 93.34%
- IVIS (mice [1]; [6]): 1.55 × 10^8
- % of organ targeting (mice [1]; [7]): 4.75%
- IVIS (mice [1]; [7]): 7.89 × 10^6
- IVIS (mice [1]; DMG-PEG2000:DSPC:Chol:Lipid 4.00:8.00:58.00:30.00, N/P 36, IV, body): 7.07 × 10^7
- % of organ targeting (mice [1]; [8]): 21.21%
- IVIS (mice [1]; [8]): 1.28 × 10^7
- % of organ targeting (mice [1]; [9]): 1.08%
- IVIS (mice [1]; [9]): 6.52 × 10^5
- % of organ targeting (mice [1]; [10]): 77.71%
- IVIS (mice [1]; [10]): 4.68 × 10^7
- IVIS (mice [1]; IV, body, DMG-PEG2000:DSPC:Chol:compound 1.00:10.00:33.00:56.00, N/P 48, Fluc-mRNA): 4.66E+08
- % of organ targeting (mice [1]; IV, liver, DMG-PEG2000:DSPC:Chol:compound 1.00:10.00:33.00:56.00, N/P 48): 0.73%
- IVIS (mice [1]; IV, liver, DMG-PEG2000:DSPC:Chol:compound 1.00:10.00:33.00:56.00, N/P 48, Fluc-mRNA): 7.58E+06
- % of organ targeting (mice [1]; IV, lung, DMG-PEG2000:DSPC:Chol:compound 1.00:10.00:33.00:56.00, N/P 48): 97.70%
- IVIS (mice [1]; IV, lung, DMG-PEG2000:DSPC:Chol:compound 1.00:10.00:33.00:56.00, N/P 48, Fluc-mRNA): 1.02E+09
- % of organ targeting (mice [1]; IV, spleen, DMG-PEG2000:DSPC:Chol:compound 1.00:10.00:33.00:56.00, N/P 48): 1.57%
- IVIS (mice [1]; IV, spleen, DMG-PEG2000:DSPC:Chol:compound 1.00:10.00:33.00:56.00, N/P 48, Fluc-mRNA): 1.64E+07
- in vivo delivery efficiency as compared to the benchmark compound SM102 (mice [1]; certain formulations, Table 2): superior in vivo delivery efficiency
- tissue-targeting specificity (lung vs spleen depending on molar percentage of compound) (mice [1]; certain formulations, Table 2): strong tissue-targeting specificity
- % of organ targeting (mice [4]; liver): 0.74%
- % of organ targeting (mice [4]; lung): 96.58%
- % of organ targeting (mice [4]; spleen): 2.68%

- PDI [2, 22]: 0.10
- Particle size (nm) [2, 22]: 108.93 nm
- PDI [2, 23]: 0.15
- Particle size (nm) [2, 23]: 106.57 nm
- PDI [2, 24]: 0.10
- Particle size (nm) [2, 24]: 89.30 nm
- Zeta potential (mV) [3, 23]: 11.37 mV
- Zeta potential (mV) [3, 24]: 9.98 mV
SMILES: CCCCCCC(CCCCCC)C(=O)OCCCCCCOC(=O)C(O)CN(CCCN(C)CCCN(CC(O)C(=O)OCCCCCCOC(=O)C(CCCCCC)CCCCCC)CC(O)C(=O)OCCCCCCOC(=O)C(CCCCCC)CCCCCC)CC(O)C(=O)OCCCCCCOC(=O)C(CCCCCC)CCCCCC (stereo not shown) [Compound L0293]
- IVIS (mice [1]; IM, N/P 30, formulation cells blank (line above: DMG-PEG2000:DSPC:Chol:compound 1.00:10.00:33.00:56.00), Fluc-mRNA): 3.61E+07
- IVIS (mice [1]; [15]): 3.11E+08
- % of organ targeting (mice [1]; [16]): 18.15%
- IVIS (mice [1]; [17]): 5.63E+07
- % of organ targeting (mice [1]; [18]): 3.34%
- IVIS (mice [1]; [19]): 1.03E+07
- % of organ targeting (mice [1]; [20]): 78.51%
- IVIS (mice [1]; [21]): 2.43E+08
- IVIS (mice [4]; IM, organ not given): 1.02E+08

- PDI [2, 22]: 0.17
- Particle size (nm) [2, 22]: 75.31 nm
- PDI [2, 25]: 0.18
- Particle size (nm) [2, 25]: 111.20 nm
- PDI [2, 26]: 0.17
- Particle size (nm) [2, 26]: 82.60 nm
- PDI [2, 14]: 0.2
- Particle size (nm) [2, 14]: 115.97 nm
- Zeta potential (mV) [3, 25]: 13.57 mV
- Zeta potential (mV) [3, 14]: 9.98 mV
SMILES: CCCCCCCCCCOC(=O)C(O)CN(CCCN(C)CCCN(CC(O)C(=O)OCCCCCCCCCC)CC(O)C(=O)OCCCCCCCCCC)CC(O)C(=O)OCCCCCCCCCC (stereo not shown) [Compound L0313]
- IVIS (mice [1]; IM, DMG-PEG2000:DSPC:Chol:compound 1.40:11.15:38.95:48.50, N/P 30, Fluc-mRNA): 7.43E+05
- IVIS (mice [1]; [15]): 5.88E+07
- IVIS (mice [1]; IV, body, DMG-PEG2000:DSPC:Chol:compound 2.50:11.50:56.00:30.00, N/P 42, Fluc-mRNA): 5.20E+07
- % of organ targeting (mice [1]; [16]): 2.04%
- IVIS (mice [1]; [17]): 3.78E+06
- % of organ targeting (mice [1]; IV, liver, DMG-PEG2000:DSPC:Chol:compound 2.50:11.50:56.00:30.00, N/P 42): 6.90%
- IVIS (mice [1]; IV, liver, DMG-PEG2000:DSPC:Chol:compound 2.50:11.50:56.00:30.00, N/P 42, Fluc-mRNA): 8.68E+06
- % of organ targeting (mice [1]; [18]): 62.84%
- IVIS (mice [1]; [19]): 1.17E+08
- % of organ targeting (mice [1]; IV, lung, DMG-PEG2000:DSPC:Chol:compound 2.50:11.50:56.00:30.00, N/P 42): 1.10%
- IVIS (mice [1]; IV, lung, DMG-PEG2000:DSPC:Chol:compound 2.50:11.50:56.00:30.00, N/P 42, Fluc-mRNA): 1.38E+06
- % of organ targeting (mice [1]; [20]): 35.12%
- IVIS (mice [1]; [21]): 6.52E+07
- % of organ targeting (mice [1]; IV, spleen, DMG-PEG2000:DSPC:Chol:compound 2.50:11.50:56.00:30.00, N/P 42): 92.00%
- IVIS (mice [1]; IV, spleen, DMG-PEG2000:DSPC:Chol:compound 2.50:11.50:56.00:30.00, N/P 42, Fluc-mRNA): 1.16E+08
- % of organ targeting (mice [4]; liver): 3.39%
- % of organ targeting (mice [4]; lung): 20.55%
- % of organ targeting (mice [4]; spleen): 76.06%
